Experimental data taken from the supplement of paper PMC10307832.

Tests used:
Assay in all cases: relative viability (nuclei count vs DMSO), 5 days (fraction); higher = more cells survive
[1] = compound: Cn1c(Nc2ccc(C(F)(F)F)cc2)nc2cc(Oc3ccnc(-c4ncc(C(F)(F)F)[nH]4)c3)ccc21 [RAF265] + Cc1cc(Nc2cc(N3CCN(C)CC3)nc(Sc3ccc(NC(=O)C4CC4)cc3)n2)n[nH]1 [Tozasertib] (partner 0.1 µM)
How it was run: (§1)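 Lung cancer cell lines were seeded in 1536-well plates and dosed by pin tool the next day, with either a single drug or a fixed anchor-drug dose combined with five library-drug doses (not always all listed) spaced in √10 steps. Five days later, one step fixed the cells and stained their nuclei (final 0.05% Triton X-100, 1% formaldehyde, 1 ug/ml Hoechst), and nuclei were counted on 4× images. Relative viability is the nuclei count in treated wells divided by the count in vehicle wells, and each value is the median of duplicate plates.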

[2] = compound: Cn1c(Nc2ccc(C(F)(F)F)cc2)nc2cc(Oc3ccnc(-c4ncc(C(F)(F)F)[nH]4)c3)ccc21 [RAF265] + O=C(c1cc(Cc2n[nH]c(=O)c3ccccc23)ccc1F)N1CCN(C(=O)C2CC2)CC1 [Olaparib] (partner 8 µM)
How it was run: as §1

[3] = compound: C1=CC=C2C(=C1)C=CC(=C2SSC3=C(C=CC4=CC=CC=C43)O)O [IPA-3] + O=C(CCCCCCC(=O)Nc1ccccc1)NO [Vorinostat] (partner 1 µM)
How it was run: as §1

[4] = compound: C1=CC=C2C(=C1)C=CC(=C2SSC3=C(C=CC4=CC=CC=C43)O)O [IPA-3] + Nc1nc2[nH]cc(CCc3ccc(C(=O)N[C@@H](CCC(=O)O)C(=O)O)cc3)c2c(=O)[nH]1 [Pemetrexed] (partner 0.2 µM)
How it was run: as §1

Row | Cell Line | relative viability ([1]; first compound 0.01 µM) | relative viability ([1]; first compound 0.03162 µM) | relative viability ([1]; first compound 0.1 µM) | relative viability ([1]; first compound 0.3162 µM) | relative viability ([1]; first compound 1 µM) | relative viability ([2]; first compound 0.01 µM) | relative viability ([2]; first compound 0.03162 µM) | relative viability ([2]; first compound 0.1 µM) | relative viability ([2]; first compound 0.3162 µM) | relative viability ([2]; first compound 1 µM) | relative viability ([3]; first compound 0.2 µM) | relative viability ([3]; first compound 0.6325 µM) | relative viability ([3]; first compound 2 µM) | relative viability ([3]; first compound 6.325 µM) | relative viability ([3]; first compound 20 µM) | relative viability ([4]; first compound 0.2 µM) | relative viability ([4]; first compound 0.6325 µM) | relative viability ([4]; first compound 2 µM) | relative viability ([4]; first compound 6.325 µM) | relative viability ([4]; first compound 20 µM)
1 | NCI-H2342 | 0.551 | 0.592 | 0.542 | 0.52 | 0.463 | 0.377 | 0.37 | 0.468 | 0.395 | 0.348 | 0.837 | 1.03 | 0.851 | 0.91 | 0.89 | 0.868 | 0.761 | 0.841 | 0.823 | 0.924
2 | PC-14 | 0.629 | 0.555 | 0.655 | – | 0.542 | 0.252 | 0.311 | 0.314 | 0.369 | 0.245 | 0.952 | 0.759 | 0.616 | 0.68 | 0.747 | 0.123 | 0.132 | 0.135 | 0.124 | 0.132
3 | HOP-62 | 0.338 | 0.326 | 0.406 | 0.515 | 0.225 | 0.461 | 0.448 | 0.439 | 0.479 | 0.268 | 0.72 | 0.556 | 0.597 | 0.698 | 0.717 | 0.333 | 0.315 | 0.345 | 0.313 | 0.328
4 | NCI-H2087 | 0.268 | 0.266 | 0.284 | 0.205 | 0.152 | 0.757 | 0.496 | 0.64 | 0.334 | 0.373 | 0.72 | 0.841 | 0.727 | 0.668 | 0.821 | 0.698 | 0.642 | 0.645 | 0.678 | 0.608
